These results are taken from patent US5077195A, “Polypeptides complementary to peptides or proteins having an amino acid sequence or nucleotide coding sequence at least partially known and methods of design therefor” (Board of Reagents, The University of Texas System, priority 1986, dated 1991).

Several values for one entry are separate records, joined by “and”; a condition that tells them apart may be missing. Identical values can stand only once. Where no end group is shown, it is not given here.

The target of one experiment is LHRH (Homo sapiens, UniProt P01148). Briefly: Reverse hemolytic plaque assay, LHRH-stimulated LH release from pituitary cells. The format is cell-based. As for the experimental part:
A reverse hemolytic plaque assay (Smith, et al.), Method in Enzymology, 124, p.
Plaques were analyzed by determining plaque area with an image analysis (Bioquant or Image Technology Corp. Model 300) of 125×-500× microscopic enlargements.

The target of the next experiment is T1, I^125 ACTH (1-39) (Homo sapiens, UniProt P01189).
T1 construct: I^125 ACTH (1-39) (New England Nuclear Boston, MA); purchased New England Nuclear (Boston, MA)
T1 sequence (P01189 138-176 limits assumed): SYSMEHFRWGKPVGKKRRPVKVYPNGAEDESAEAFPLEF
Nature of the experiment: ^125 I-ACTH binding to peptide-coated microtiter wells. The settings on record: for CPM bound ^125 I-ACTH: Table 10; for CPM Bound ^125 I-ATCH: Table 11. As for the experimental part: Utilizing techniques described in Example 1B, polyvinyl microtiter wells were coated with 3'-5' HTCA from a 1 mM solution thereof or with BSA.
The BSA and 3'-5' HTCA coated wells were washed and then treated with one of three solutions of I^125 ACTH (1-39) (New England Nuclear Boston, MA) having different concentrations. After a forty five minute incubation period the solution was removed and the microtiter wells extensively washed. The microtiter wells were separated and assayed for iodine^125content in a Beckman Gamma 5500 gamma counter. Bound ^125 I-ACTH was measured in duplicate at three concentrations in the absence and presence of excess unlabelled ACTH.
Utilizing the cRNA sequence and HTCA sequence shown in Table 8 of Example 1A, a series of peptides having a carboxy-terminal portion of the HTCA amino acid were synthesized. A pentamer (5-mer) contained the amino acid sequence: H2 N-Phe-His-Gly-Val-Arg-COOH. A decamer (10-mer) contained the amino acid sequence: H2 N-[…]COOH. A twenty membered peptide (20-mer) contained the amino acids sequence: H2 N-[…] Val-Arg-COOH. Each of thes peptides was used to coat microtiter wells and the coated wells tested for the ability to bind ^125 I-ACTH as described in Example 1C.
A 24-mer HTCA variant (R-HTCA) with reversed amino acid sequence directionality (amino-terminal and carboxy-terminal ends being reversed) was synthesized and had the following sequence: H2 N-[…] Arg-His-Leu-His-Val-Gly-COOH. The well-coating and ^125 I-ACTH binding procedures were performed as described in Example 1-C and the resultant data shown in Table 11.

Setting [1] is: conc ^125 I-ATCH, + excess ACTH.

Turning to `C[C@H](N)C(=O)NCC(=O)N[C@H]1CSSC[C@@H](C(=O)O)NC(=O)[C@H](CO)NC(=O)[C@H]([C@@H](C)O)NC(=O)[C@H](Cc2ccccc2)NC(=O)[C@H]([C@@H](C)O)NC(=O)[C@H](CCCCN)NC(=O)[C@H](Cc2c[nH]c3ccccc23)NC(=O)[C@H](Cc2ccccc2)NC(=O)[C@H](Cc2ccccc2)NC(=O)[C@H](CC(N)=O)NC(=O)[C@H](CCCCN)NC1=O` [Somatostatin, reference compound], at LHRH (5 × 10^-10 M LHRH + Somatostatin 10^-4 M, Exp. 1 (Pre)), the “plaque area, percentage response to control assay” value (shortened to “plaque area, percentage response”) is 103%.
In the case of APAEVFHGVR [10-mer], the “CPM bound ^125 I-ACTH” value is 8,927 CPM and 9,072 CPM at I^125 ACTH (1-39) (conc ^125 I-ATCH); 345 CPM and 350 CPM on I^125 ACTH (1-39) (setting [1]).
Take “FHGVR [5-mer, H2 N-Phe-His-Gly-Val-Arg-COOH]”: the “CPM bound ^125 I-ACTH” value on I^125 ACTH (1-39) (1:3 dilution ^125 I-ATCH) is 3,514 CPM and 3,655 CPM; on I^125 ACTH (1-39) (1:3 dilution ^125 I-ATCH, + excess ACTH) it was 97 CPM and 95 CPM; on I^125 ACTH (1-39) (1:9 dilution ^125 I-ATCH), 995 CPM and 993 CPM; at I^125 ACTH (1-39) (setting [1]) it was 233 CPM and 245 CPM.
With HRAPLLAHRLAPAEVFHGVR [20-mer], at I^125 ACTH (1-39) (1:3 dilution ^125 I-ATCH), the “CPM bound ^125 I-ACTH” value is 613 CPM and 625 CPM.
For the molecule RVGHFVEAPALRHALLPARHLHVG [R-HTCA], on I^125 ACTH (1-39), the “binding of ^125 I-ACTH to coated wells (in words)” value is given as “significant affinity for ACTH”. In addition, the “CPM Bound ^125 I-ATCH” value at I^125 ACTH (1-39) (1:9 dil. ^125 I-ATCH) is 1,101 CPM and 1,161 CPM; on I^125 ACTH (1-39) (1:9 dil. ^125 I-ATCH, + Excess ACTH) it was 65 CPM and 69 CPM; at I^125 ACTH (1-39) (conc ^125 I-ATCH), 10,392 CPM and 10,709 CPM.
For “SRAQSIGPVL [5CA-LHRH, LEU--VAL--PRO--GLY--ILE--SER--GLN--ALA--ARG--SER]”, the “plaque area, percentage response” value is listed as 2.7% at LHRH (5CA-LHRH alone 10^-5 M, Exp. 3); 0.5% on LHRH (5CA-LHRH alone 10^-6 M, Exp. 3); 0.5% at LHRH (5CA-LHRH alone 10^-7 M, Exp. 3); 77% on LHRH (5 × 10^-10 M LHRH + 10^-4 M, Exp. 1 (Pre)); 61% at LHRH (LHRH + 10^-4 M, Exp. 2 (No)); 52% at LHRH (LHRH + 10^-4 M, Exp. 4 (Pre)). The “plaque area, percentage response” value is 52% on LHRH (LHRH + 10^-4 M, Exp. 5 (No)); 82% at LHRH (LHRH + 10^-5 M, Exp. 1 (Pre)); 52% at LHRH (LHRH + 10^-5 M, Exp. 2 (No)); 68% on LHRH (LHRH + 10^-5 M, Exp. 3 (Pre)); 63% on LHRH (LHRH + 10^-5 M, Exp. 4 (Pre)); 70% on LHRH (LHRH + 10^-5 M, Exp. 5 (No)). For the same molecule, the “plaque area, percentage response” value was 110% on LHRH (LHRH + 10^-6 M, Exp. 1 (Pre)); 74% on LHRH (LHRH + 10^-6 M, Exp. 2 (No)); 98% at LHRH (LHRH + 10^-6 M, Exp. 3 (Pre)); 81% at LHRH (LHRH + 10^-6 M, Exp. 4 (Pre)); 81% at LHRH (LHRH + 10^-6 M, Exp. 5 (No)); 101% on LHRH (LHRH + 10^-7 M, Exp. 1 (Pre)). Further, the “plaque area, percentage response” value is on record as 74% on LHRH (LHRH + 10^-7 M, Exp. 2 (No)); 88% at LHRH (LHRH + 10^-7 M, Exp. 3 (Pre)); 78% on LHRH (LHRH + 10^-7 M, Exp. 4 (Pre)); 115% at LHRH (LHRH + 10^-7 M, Exp. 5 (No)); 105% at LHRH (LHRH + 10^-8 M, Exp. 1 (Pre)); 83% on LHRH (LHRH + 10^-8 M, Exp. 2 (No)). In addition, the “plaque area, percentage response” value on LHRH (LHRH + 10^-8 M, Exp. 4 (Pre)) is recorded as 96%; at LHRH (LHRH + 10^-8 M, Exp. 5 (No)), 92%; at LHRH (LHRH + 10^-9 M, Exp. 1 (Pre)) it was 119%; at LHRH (LHRH + 10^-9 M, Exp. 2 (No)), 84%; on LHRH (LHRH + 10^-9 M, Exp. 4 (Pre)), 95%; at LHRH (LHRH + 10^-9 M, Exp. 5 (No)), 123%.
